Measured values taken from ChEMBL document CHEMBL6182935, “Discovery of a Novel Silybin Derivative for the Treatment of Metabolic Dysfunction-Associated Steatohepatitis” (J Med Chem, 2025).
pIC50: −log10 of the molar value. In brackets after ≈: the same amount, converted by molar mass. Activity calls are given as the source filed them. No cut-off for these calls is given here.

Key:
[1] = test system: Mus musculus; experiment: Anti-MASH activity in HFD-fed CCl4-treated male C57BL/6 mouse assessed as restoration of liver SOD level at 150 mg/kg, po qd treated for 4 weeks; format: functional, organism-based
[2] = test system: LX-2; experiment: Anti-MASH activity in TGF-beta-activated-human LX2 cells assessed as reduction in collagen I level incubated for 48 hrs by Western blot analysis; format: functional, cell-based; settings: dose 10-40 µM
[3] = test system: Mus musculus; experiment: Anti-MASH activity in HFD-fed CCl4-treated male C57BL/6 mouse assessed as reduction in inflammation in liver at 150 mg/kg, po qd treated for 4 weeks by H and E/Oil red O staining based analysis; format: functional, organism-based
[4] = test system: Mus musculus; experiment: Anti-MASH activity in HFD-fed CCl4-treated male C57BL/6 mouse assessed as reduction in hepatocyte ballooning in liver at 150 mg/kg, po qd treated for 4 weeks by H and E/Oil red O staining based analysis; format: functional, organism-based
[5] = Acute toxicity in male KM mouse assessed as animal suvival at 2 g/kg, po administered as single dose measured after 2 weeks; format: organism-based; settings: in vivo, 2000 mg/kg, 336 h
[6] = Apparent volume of distribution during terminal phase in overnight-fasted male Sprague-Dawley rat at 150 mg/kg, po measured up to 12 hrs by HPLC analysis; format: ADME, organism-based; settings: in vivo, read-out: Vz/F
[7] = test system: L02; experiment: Anti-MASH activity in palmitate/oleate-stimulated human LO2 cells assessed as reduction in triglyceride level incubated for 24 hrs; format: functional, cell-based; settings: dose 10-40 µM
[8] = test system: Mus musculus; experiment: Anti-MASH activity in HFD-fed CCl4-treated male C57BL/6 mouse assessed as restoration of liver GSH level at 150 mg/kg, po qd treated for 4 weeks; format: functional, organism-based
[9] = test system: Mus musculus; experiment: Anti-MASH activity in HFD-fed CCl4-treated male C57BL/6 mouse assessed as reduction in serum HDL cholesterol level at 150 mg/kg, po qd treated for 4 weeks; format: functional, organism-based
[10] = Antioxidant activity assessed as inhibition of DPPH free radical scavenging activity incubated for 30 mins under dark condition; format: functional
[11] = test system: Mus musculus; experiment: Anti-MASH activity in HFD-fed CCl4-treated male C57BL/6 mouse assessed as reversal of mottled texture of liver at 150 mg/kg, po qd treated for 4 weeks; format: functional, organism-based
[12] = test system: Rattus norvegicus; experiment: Hepatoprotective activity in male Sprague-Dawley rat model of CCl4-induced ALI assessed as reduction in acute fat deposition at 100 mg/kg, IG qd pretreated with compound for 7 days followed by CCl4 administration after 2 hrs post-compound treatment measured after 16 hrs post-CCl4 injection by oil red O staining based analysis; format: functional, organism-based; settings: time 186.0 hrs
[13] = test system: Rattus norvegicus; experiment: Hepatoprotective activity in male Sprague-Dawley rat model of CCl4-induced ALI assessed as restoration of serum LDH level at 100 mg/kg, IG qd pretreated with compound for 7 days followed by CCl4 administration after 2 hrs post-compound treatment measured after 16 hrs post-CCl4 injection; format: functional, organism-based; settings: time 186.0 hrs
[14] = Oral bioavailability in overnight-fasted male Sprague-Dawley rat assessed as fold increase at 150 mg/kg measured up to 12 hrs by HPLC analysis relative to silybin; format: ADME, organism-based; settings: in vivo
[15] = Acute toxicity in male KM mouse assessed as abnormalities in animal at 2 g/kg, po administered as single dose measured after 2 weeks; format: organism-based; settings: in vivo, 2000 mg/kg, 336 h
[16] = test system: Hepatocyte; experiment: Anti-inflammatory activity in CCl4-stimulated mouse primary hepatocytes assessed as reduction in IL-6 mRNA level at 1 uM; format: functional, cell-based
[17] = test system: Mus musculus; experiment: Anti-MASH activity in HFD-fed CCl4-treated male C57BL/6 mouse assessed as reduction in steatosis in liver at 150 mg/kg, po qd treated for 4 weeks by H and E/Oil red O staining based analysis; format: functional, organism-based
[18] = test system: Mus musculus; experiment: Anti-MASH activity in HFD-fed CCl4-treated male C57BL/6 mouse assessed as reduction in hepatic cholesterol level at 150 mg/kg, po qd treated for 4 weeks by ELISA; format: functional, organism-based
[19] = test system: Mus musculus; experiment: Anti-MASH activity in HFD-fed CCl4-treated male C57BL/6 mouse assessed as reduction in fat accumulation in liver at 150 mg/kg, po qd treated for 4 weeks by Oil red O staining based analysis; format: functional, organism-based
[20] = Toxicity in HFD-fed CCl4-treated male C57BL/6 mouse assessed as body weight loss at 150 mg/kg, po qd treated for 4 weeks; format: organism-based; settings: in vivo, 672 h
[21] = test system: Hepatocyte; experiment: Anti-MASH activity in palmitate/oleate-stimulated mouse primary hepatocytes assessed as reduction in FASN mRNA level by q-PCR analysis; format: functional, cell-based
[22] = Inhibition of lipid peroxidation in egg yolk (unknown origin) at 100 uM preheated with compound and FeSO4 for 15 mins followed by TCA/TBA addition measured after 15 mins by absorbance based assay relative to control; format: functional, tissue-based; set-up: scale not given: the % may be the effect or the level left; settings: time 30.0 min
[23] = test system: Rattus norvegicus; experiment: Hepatoprotective activity in male Sprague-Dawley rat model of CCl4-induced ALI assessed as restoration of serum ALT level at 100 mg/kg, IG qd pretreated with compound for 7 days followed by CCl4 administration after 2 hrs post-compound treatment measured after 16 hrs post-CCl4 injection; format: functional, organism-based; settings: time 186.0 hrs
[24] = Solubility in water incubated for 10 mins; format: physicochemical
[25] = test system: Rattus norvegicus; experiment: Hepatoprotective activity in male Sprague-Dawley rat model of CCl4-induced ALI assessed as reduction in dullness of liver margin at 100 mg/kg, IG qd pretreated with compound for 7 days followed by CCl4 administration after 2 hrs post-compound treatment measured after 16 hrs post-CCl4 injection; format: functional, organism-based; settings: time 186.0 hrs
[26] = test system: Rattus norvegicus; experiment: Hepatoprotective activity in male Sprague-Dawley rat model of CCl4-induced ALI assessed as reduction in vacuoles at 100 mg/kg, IG qd pretreated with compound for 7 days followed by CCl4 administration after 2 hrs post-compound treatment measured after 16 hrs post-CCl4 injection by H and E staining based analysis; format: functional, organism-based; settings: time 186.0 hrs
[27] = test system: Mus musculus; experiment: Anti-MASH activity in HFD-fed CCl4-treated male C57BL/6 mouse assessed as reversal of light color of liver at 150 mg/kg, po qd treated for 4 weeks; format: functional, organism-based
[28] = test system: Hepatocyte; experiment: Anti-MASH activity in palmitate/oleate-stimulated mouse primary hepatocytes assessed as reduction in triglyceride level; format: functional, cell-based
[29] = test system: Rattus norvegicus; experiment: Hepatoprotective activity in male Sprague-Dawley rat model of CCl4-induced ALI assessed as reduction in […] somatic indices at 100 mg/kg, IG qd pretreated with compound for 7 days followed by CCl4 administration after 2 hrs post-compound treatment measured after 16 hrs post-CCl4 injection; format: functional, organism-based; settings: time 186.0 hrs
[30] = Solubility in […] incubated for 10 mins; format: physicochemical
[31] = test system: L02; experiment: Anti-inflammatory activity in CCl4-stimulated human LO2 cells assessed as reduction in TNF-alpha mRNA level at 1 uM; format: functional, cell-based
[32] = test system: Mus musculus; experiment: Anti-MASH activity in HFD-fed CCl4-treated male C57BL/6 mouse assessed as reduction in serum LDL cholesterol level at 150 mg/kg, po qd treated for 4 weeks; format: functional, organism-based
[33] = AUC (0 to infinity) in overnight-fasted male Sprague-Dawley rat at 150 mg/kg, po measured up to 12 hrs by HPLC analysis; format: ADME, organism-based; settings: in vivo

Structure (SMILES): COc1cc([C@@H]2Oc3cc([C@H]4Oc5cc(O)cc(O)c5C(=O)[C@@H]4O)ccc3OC2CS)ccc1O (stereo partly drawn)
- Activity [1]: Active
- Activity [2]: Dose-dependent-effect
- Activity [3]: Active; Activity Was Better Than Silybin
- Activity [4]: Active; Activity Was Better Than Silybin
- Activity [5]: Non-toxic
- Vd/F [6]: 6.91 L
- Activity [7]: Dose-dependent-effect
- Activity [8]: Active; Compound Was More Significant Than Silybin
- Activity [9]: Active
- pIC50 [10]: 4.48
- Activity [11]: Active; Activity Better Than Silybin
- Activity [12]: Active
- Activity [13]: Active
- fold change (FC) [14]: > 20
- Activity [15]: Non-toxic
- Activity [16]: Active
- Activity [17]: Active; Activity Was Better Than Silybin
- Activity [18]: Active; Activity Was More Significant Than Silybin
- Activity [19]: Active
- Activity [20]: Non-toxic
- Activity [21]: Active
- Activity [22]: 67%
- Activity [23]: Active
- solubility at 10 min [24]: 0.25 mg/mL (≈ 0.501 mM)
- Activity [25]: Active
- Activity [26]: Active
- Activity [27]: Active; Activity Better Than Silybin
- Activity [28]: Active
- Activity [29]: Active
- solubility [30]: > 1000 mg/mL
- Activity [31]: Active
- Activity [32]: Active
- AUC(0-inf) [33]: 11600 ng·h/mL
